# According to patent US20230091042A1, “SMARCA2-VHL DEGRADERS” (AMGEN INC., priority 2020, published 2023):
# Key:
# SMARCA4 = target: T1, SMARCA4 (Homo sapiens, UniProt P51532); experiment: SMARCA4 MSD assay in A375 cells (SMARCA4 degradation, 2 h); format: cell-based; details: 2 h compound treatment, N/C = no curve
# T1 construct: After 2 h of compound treatment, cells were lysed in MSD lysis buffer; endogenous in cells; host or cells: A375 cells (ATCC CRL-1619)
# Procedure: (§1) SMARCA2 and SMARCA4 MSD Assays in A375 Cells:
# A 1:3 compound dose-response titration was diluted in growth media (1:20), added to appropriate wells of a cell culture plate (1:10) and then assay plates were incubated at 37° C., 5% CO2.
# Plates were washed with 300 μL per well MSD wash buffer (MSD R61TX-1) between each step. Following the last incubation, plates were washed with MSD wash buffer then 150 uL of MSD read buffer (MSD R92TC-2) was added to each well. Plates were immediately read on a MSD plate reader (MSD Sector Imager 6000) and data was analyzed using a 4-parameter logistic model to calculate IC50 values.
# SMARCA2 = target: T2, SMARCA2 (Homo sapiens, UniProt P51531); experiment: SMARCA2 MSD assay in A375 cells (SMARCA2 degradation, 2 h); format: cell-based; details: 2 h compound treatment, N/C = no curve; for DC50: read-out: A375 SMARCA2 MSD IC50 IP
# T2 construct: endogenous in cells; host or cells: A375 cells (ATCC CRL-1619)
# Procedure: as §1
# A375 cells (ATCC® CRL-1619™) were cultured in RPMI 1640 Medium (ThermoFisher Scientific 11875093) containing 10% fetal bovine serum (ThermoFisher Scientific 16000044) and 1× penicillin-streptomycin-glutamine (ThermoFisher Scientific 10378016). Sixteen hours prior to compound treatment, cells were seeded in 96-well cell culture plates (Corning 3904) at a density of 2.5×10^5 cells/well (90 uL/well) and incubated at 37° C., 5% CO2. A 1:3 compound dose-response titration was diluted in growth media (1:20), added to appropriate wells of a cell culture plate (1:10) and then assay plates were incubated at 37° C., 5% CO2. After 2 h of compound treatment, cells were lysed in MSD lysis buffer (MSD R60TX-2) containing protease (Roche 04693116001) and phosphatase (Roche 04906837001) inhibitors.
# . Plates were washed with 300 μL per well MSD wash buffer (MSD R61TX-1) between each step. Following the last incubation, plates were washed with MSD wash buffer then 150 uL of MSD read buffer (MSD R92TC-2) was added to each well. Plates were immediately read on a MSD plate reader (MSD Sector Imager 6000) and data was analyzed using a 4-parameter logistic model to calculate IC50 values.
# T1 sequence (P51532 whole entry): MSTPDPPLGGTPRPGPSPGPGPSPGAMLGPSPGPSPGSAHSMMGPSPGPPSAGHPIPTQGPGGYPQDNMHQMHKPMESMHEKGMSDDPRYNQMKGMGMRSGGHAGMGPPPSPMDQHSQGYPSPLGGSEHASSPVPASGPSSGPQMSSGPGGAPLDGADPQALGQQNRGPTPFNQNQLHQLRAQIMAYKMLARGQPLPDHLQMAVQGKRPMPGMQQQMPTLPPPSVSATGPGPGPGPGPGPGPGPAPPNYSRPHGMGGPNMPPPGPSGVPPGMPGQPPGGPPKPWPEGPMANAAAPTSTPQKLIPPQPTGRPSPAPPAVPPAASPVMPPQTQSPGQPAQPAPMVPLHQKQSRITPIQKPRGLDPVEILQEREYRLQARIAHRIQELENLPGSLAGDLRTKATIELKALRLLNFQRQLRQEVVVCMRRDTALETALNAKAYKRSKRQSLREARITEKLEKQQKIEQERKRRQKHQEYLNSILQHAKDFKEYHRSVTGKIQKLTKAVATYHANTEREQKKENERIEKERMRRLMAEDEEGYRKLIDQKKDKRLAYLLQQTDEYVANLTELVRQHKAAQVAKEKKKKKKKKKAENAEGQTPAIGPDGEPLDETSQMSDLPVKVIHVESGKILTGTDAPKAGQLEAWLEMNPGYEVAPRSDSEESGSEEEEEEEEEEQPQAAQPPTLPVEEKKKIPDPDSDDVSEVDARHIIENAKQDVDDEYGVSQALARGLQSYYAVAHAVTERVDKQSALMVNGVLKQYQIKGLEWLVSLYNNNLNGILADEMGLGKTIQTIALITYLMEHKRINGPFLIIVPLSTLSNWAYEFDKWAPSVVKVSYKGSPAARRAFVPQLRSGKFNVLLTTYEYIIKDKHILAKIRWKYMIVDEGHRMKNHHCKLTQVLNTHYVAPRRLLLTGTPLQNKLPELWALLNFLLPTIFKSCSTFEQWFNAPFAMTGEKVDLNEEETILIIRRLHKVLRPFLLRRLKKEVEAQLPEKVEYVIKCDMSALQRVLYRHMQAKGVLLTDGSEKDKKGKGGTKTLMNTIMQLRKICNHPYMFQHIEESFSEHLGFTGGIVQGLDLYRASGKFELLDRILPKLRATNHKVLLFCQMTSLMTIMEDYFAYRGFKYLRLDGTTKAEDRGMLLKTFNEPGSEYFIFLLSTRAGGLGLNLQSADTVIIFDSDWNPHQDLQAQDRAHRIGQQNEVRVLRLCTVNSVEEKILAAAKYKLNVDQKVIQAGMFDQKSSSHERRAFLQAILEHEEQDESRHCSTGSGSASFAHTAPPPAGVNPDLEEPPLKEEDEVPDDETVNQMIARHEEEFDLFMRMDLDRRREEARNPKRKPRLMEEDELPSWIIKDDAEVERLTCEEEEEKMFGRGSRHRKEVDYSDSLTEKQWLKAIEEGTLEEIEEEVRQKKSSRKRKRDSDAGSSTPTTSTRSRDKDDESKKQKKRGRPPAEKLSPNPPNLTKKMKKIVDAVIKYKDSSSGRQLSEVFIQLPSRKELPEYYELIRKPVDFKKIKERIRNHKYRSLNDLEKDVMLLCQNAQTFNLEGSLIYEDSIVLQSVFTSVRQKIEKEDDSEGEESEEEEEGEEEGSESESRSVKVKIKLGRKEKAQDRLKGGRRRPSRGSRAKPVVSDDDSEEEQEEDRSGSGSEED
# T2 sequence (P51531 whole entry): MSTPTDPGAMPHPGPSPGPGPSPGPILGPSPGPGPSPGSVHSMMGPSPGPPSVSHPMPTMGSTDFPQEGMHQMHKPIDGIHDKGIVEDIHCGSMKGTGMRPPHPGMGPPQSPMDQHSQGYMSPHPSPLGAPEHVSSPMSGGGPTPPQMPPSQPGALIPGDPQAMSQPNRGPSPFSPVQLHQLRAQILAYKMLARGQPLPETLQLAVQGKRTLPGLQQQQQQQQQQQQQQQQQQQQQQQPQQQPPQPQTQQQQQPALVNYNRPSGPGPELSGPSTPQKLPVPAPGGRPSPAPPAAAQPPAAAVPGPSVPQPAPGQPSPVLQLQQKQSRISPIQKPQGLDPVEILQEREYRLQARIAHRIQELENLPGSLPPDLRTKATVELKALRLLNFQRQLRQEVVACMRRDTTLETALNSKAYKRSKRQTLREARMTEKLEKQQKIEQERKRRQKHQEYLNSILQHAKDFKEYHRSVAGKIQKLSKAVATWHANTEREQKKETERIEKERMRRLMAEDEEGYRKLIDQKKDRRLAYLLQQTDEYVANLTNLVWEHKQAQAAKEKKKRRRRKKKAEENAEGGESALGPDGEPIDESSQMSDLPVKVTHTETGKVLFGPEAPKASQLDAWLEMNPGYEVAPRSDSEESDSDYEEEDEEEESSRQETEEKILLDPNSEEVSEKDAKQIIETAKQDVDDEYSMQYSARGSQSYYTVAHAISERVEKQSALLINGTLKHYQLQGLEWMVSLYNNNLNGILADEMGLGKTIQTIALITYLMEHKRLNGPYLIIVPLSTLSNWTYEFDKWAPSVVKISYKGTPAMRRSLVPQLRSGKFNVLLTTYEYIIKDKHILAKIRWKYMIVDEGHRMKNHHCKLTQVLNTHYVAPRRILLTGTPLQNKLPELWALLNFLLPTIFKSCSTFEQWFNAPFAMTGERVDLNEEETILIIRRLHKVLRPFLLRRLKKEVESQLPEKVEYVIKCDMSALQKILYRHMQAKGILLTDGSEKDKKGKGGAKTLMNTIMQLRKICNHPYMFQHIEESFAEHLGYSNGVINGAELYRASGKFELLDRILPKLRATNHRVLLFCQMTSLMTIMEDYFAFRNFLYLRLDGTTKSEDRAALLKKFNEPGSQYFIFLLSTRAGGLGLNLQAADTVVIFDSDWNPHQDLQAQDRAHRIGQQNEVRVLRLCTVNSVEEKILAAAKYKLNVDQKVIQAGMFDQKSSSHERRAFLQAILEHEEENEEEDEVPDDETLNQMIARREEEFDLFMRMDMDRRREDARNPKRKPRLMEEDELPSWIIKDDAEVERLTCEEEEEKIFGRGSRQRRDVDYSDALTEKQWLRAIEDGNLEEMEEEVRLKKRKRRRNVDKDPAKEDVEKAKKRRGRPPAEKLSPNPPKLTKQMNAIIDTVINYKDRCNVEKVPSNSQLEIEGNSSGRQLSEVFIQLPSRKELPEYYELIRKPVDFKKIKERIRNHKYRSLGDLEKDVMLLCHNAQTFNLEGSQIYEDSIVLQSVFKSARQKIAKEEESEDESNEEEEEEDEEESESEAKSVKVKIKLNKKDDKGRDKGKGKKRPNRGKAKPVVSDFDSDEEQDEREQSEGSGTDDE
SMILES,A375 SMARCA4 MSD IC50 IP (SMARCA4),DC50 (SMARCA2) [µM],other results
"Cc1ncsc1-c1ccc([C@H](C)NC(=O)[C@@H]2C[C@@H](O)CN2C(=O)[C@@H](NC(=O)c2ccc(N3CCN(c4cc(-c5ccccc5O)nnc4N)CC3)nc2)C(C)(C)C)cc1 [Example 7, 6-(4-(3-Amino-6-(2-hydroxyphenyl)pyridazin-4-yl)piperazin-1-yl)-N—((S)-1-((2S,4R)-4-hydroxy-2-(((S)-1-(4-(4-methylthiazol-5-yl)phenyl)ethyl)carbamoyl)pyrrolidin-1-yl)-3,3-dimethyl-1-oxobutan-2-yl)nicotinamide]",N/C,,A375 SMARCA2 MSD IC50 IP (SMARCA2): N/C
"Cc1ncsc1-c1ccc([C@H](C)NC(=O)[C@@H]2C[C@@H](O)CN2C(=O)[C@@H](NC(=O)c2ccc(N3CCN(c4cc(-c5ccccc5O)nnc4N)CC3)s2)C(C)(C)C)cc1 [Example 6, (2S,4R)-1-((S)-2-(5-(4-(3-Amino-6-(2-hydroxyphenyl)pyridazin-4-yl)piperazin-1-yl)thiophene-2-carboxamido)-3,3-dimethylbutanoyl)-4-hydroxy-N—((S)-1-(4-(4-methylthiazol-5-yl)phenyl)ethyl)pyrrolidine-2-carboxamide]",,0.19,
"Cc1ncsc1-c1ccc([C@H](C)NC(=O)[C@@H]2C[C@@H](O)CN2C(=O)[C@@H](NC(=O)c2cccc(N3CCN(c4cc(-c5ccccc5O)nnc4N)CC3)c2)C(C)(C)C)cc1 [Example 4, (2S,4R)-1-((S)-2-(3-(4-(3-Amino-6-(2-hydroxyphenyl)pyridazin-4-yl)piperazin-1-yl)benzamido)-3,3-dimethylbutanoyl)-4-hydroxy-N—((S)-1-(4-(4-methylthiazol-5-yl)phenyl)ethyl)pyrrolidine-2-carboxamide]",,0.022,
"Cc1ncsc1-c1ccc([C@H](C)NC(=O)[C@@H]2C[C@@H](O)CN2C(=O)[C@@H](NC(=O)CCc2ccnc(N3CCN(c4cc(-c5ccccc5O)nnc4N)CC3)c2)C(C)(C)C)cc1 [Example 9, (2S,4R)-1-((S)-2-(3-(2-(4-(3-Amino-6-(2-hydroxyphenyl)pyridazin-4-yl)piperazin-1-yl)pyridin-4-yl)propanamido)-3,3-dimethylbutanoyl)-4-hydroxy-N—((S)-1-(4-(4-methylthiazol-5-yl)phenyl)ethyl)pyrrolidine-2-carboxamide]",N/C,,A375 SMARCA2 MSD IC50 IP (SMARCA2): N/C
"Cc1ncsc1-c1ccc([C@H](C)NC(=O)[C@@H]2C[C@@H](O)CN2C(=O)[C@@H](NC(=O)c2ccnc(N3CCN(c4cc(-c5ccccc5O)nnc4N)CC3)c2)C(C)(C)C)cc1 [Example 3, 2-(4-(3-Amino-6-(2-hydroxyphenyl)pyridazin-4-yl)piperazin-1-yl)-N—((S)-1-((2S,4R)-4-hydroxy-2-(((S)-1-(4-(4-methylthiazol-5-yl)phenyl)ethyl)carbamoyl)pyrrolidin-1-yl)-3,3-dimethyl-1-oxobutan-2-yl)isonicotinamide]",,0.043,
"Cc1ncsc1-c1ccc([C@H](C)NC(=O)[C@@H]2C[C@@H](O)CN2C(=O)[C@@H](NC(=O)CN2CCN(c3cc(-c4ccccc4O)nnc3N)CC2)C(C)(C)C)cc1 [compound 1, (2S,4R)-1-((S)-2-(2-(4-(3-Amino-6-(2-hydroxyphenyl)pyridazin-4-yl)piperazin-1-yl)acetamido)-3,3-dimethylbutanoyl)-4-hydroxy-N—((S)-1-(4-(4-methylthiazol-5-yl)phenyl)ethyl)pyrrolidine-2-carboxamide, reference compound]",,0.25,DC50 (SMARCA4; read-out: A375 SMARCA4 MSD IC50 IP): 0.84 µM
"Cc1ncsc1-c1ccc([C@H](C)NC(=O)[C@@H]2C[C@@H](O)CN2C(=O)[C@@H](NC(=O)c2cccc(N3CCN(c4nc(-c5ccccc5O)nnc4N)CC3)n2)C(C)(C)C)cc1 [Example 10, 6-(4-(6-Amino-3-(2-hydroxyphenyl)-1,2,4-triazin-5-yl)piperazin-1-yl)-N—((S)-1-((2S,4R)-4-hydroxy-2-(((S)-1-(4-(4-methylthiazol-5-yl)phenyl)ethyl)carbamoyl)pyrrolidin-1-yl)-3,3-dimethyl-1-oxobutan-2-yl)picolinamide]",,0.25,
"Cc1ncsc1-c1ccc([C@H](C)NC(=O)[C@@H]2C[C@@H](O)CN2C(=O)[C@@H](NC(=O)CN2CCN(c3cc(-c4cccc(F)c4O)nnc3N)CC2)C(C)(C)C)cc1 [compound 2, (2S,4R)-1-((S)-2-(2-(4-(3-Amino-6-(3-fluoro-2-hydroxyphenyl)pyridazin-4-yl)piperazin-1-yl)acetamido)-3,3-dimethylbutanoyl)-4-hydroxy-N—((S)-1-(4-(4-methylthiazol-5-yl)phenyl)ethyl)pyrrolidine-2-carboxamide, reference compound]",,0.42,
"Cc1ncsc1-c1ccc([C@H](C)NC(=O)[C@@H]2C[C@@H](O)CN2C(=O)[C@@H](NC(=O)c2ccnc(N3CCN(c4cnnc(-c5ccccc5O)c4)CC3)c2)C(C)(C)C)cc1 [Example 11, N—((S)-1-((2S,4R)-4-Hydroxy-2-(((S)-1-(4-(4-methylthiazol-5-yl)phenyl)ethyl)carbamoyl)pyrrolidin-1-yl)-3,3-dimethyl-1-oxobutan-2-yl)-2-(4-(6-(2-hydroxyphenyl)pyridazin-4-yl)piperazin-1-yl)isonicotinamide]",N/C,0.35,
"Cc1ncsc1-c1ccc([C@H](C)NC(=O)[C@@H]2C[C@@H](O)CN2C(=O)[C@@H](NC(=O)Cc2ccnc(N3CCN(c4cc(-c5ccccc5O)nnc4N)CC3)c2)C(C)(C)C)cc1 [Example 8, (2S,4R)-1-((S)-2-(2-(2-(4-(3-Amino-6-(2-hydroxyphenyl)pyridazin-4-yl)piperazin-1-yl)pyridin-4-yl)acetamido)-3,3-dimethylbutanoyl)-4-hydroxy-N—((S)-1-(4-(4-methylthiazol-5-yl)phenyl)ethyl)pyrrolidine-2-carboxamide]",N/C,,A375 SMARCA2 MSD IC50 IP (SMARCA2): N/C
"Cc1ncsc1-c1ccc(CNC(=O)[C@@H]2C[C@@H](O)CN2C(=O)[C@@H](NC(=O)c2ccnc(N3CCN(c4cc(-c5ccccc5O)nnc4N)CC3)c2)C(C)(C)C)cc1 [Example 1, 2-(4-(3-Amino-6-(2-hydroxyphenyl)pyridazin-4-yl)piperazin-1-yl)-N—((S)-1-((2S,4R)-4-hydroxy-2-((4-(4-methylthiazol-5-yl)benzyl)carbamoyl)pyrrolidin-1-yl)-3,3-dimethyl-1-oxobutan-2-yl)isonicotinamide]",,0.11,
"Cc1ncsc1-c1ccc([C@H](C)NC(=O)[C@@H]2C[C@@H](O)CN2C(=O)[C@@H](NC(=O)c2cccc(N3CCN(c4cc(-c5ccccc5O)nnc4N)CC3)n2)C(C)(C)C)cc1 [Example 2, 6-(4-(3-Amino-6-(2-hydroxyphenyl)pyridazin-4-yl)piperazin-1-yl)-N—((S)-1-((2S,4R)-4-hydroxy-2-(((S)-1-(4-(4-methylthiazol-5-yl)phenyl)ethyl)carbamoyl)pyrrolidin-1-yl)-3,3-dimethyl-1-oxobutan-2-yl)picolinamide]",,0.12,
"Cc1ncsc1-c1ccc([C@H](C)NC(=O)[C@@H]2C[C@@H](O)CN2C(=O)[C@@H](NC(=O)c2csc(N3CCN(c4cc(-c5ccccc5O)nnc4N)CC3)n2)C(C)(C)C)cc1 [Example 5, 2-(4-(3-Amino-6-(2-hydroxyphenyl)pyridazin-4-yl)piperazin-1-yl)-N—((S)-1-((2S,4R)-4-hydroxy-2-(((S)-1-(4-(4-methylthiazol-5-yl)phenyl)ethyl)carbamoyl)pyrrolidin-1-yl)-3,3-dimethyl-1-oxobutan-2-yl)thiazole-4-carboxamide]",,0.15,
